Ends that are not written are not given here.
How the values were obtained:
Ca2/CaM12’ = molecular target: T1, Ca2/CaM12’ (Xenopus laevis, UniProt P0DP33, D21A/D23A/D25A/D57A/D59A/E32Q/E68Q/N61A); experiment: ITC of Ca2/CaM12’ binding to IQ peptides; details: 27 °C; for n-value (stoichiometry) / ΔH: SD from three independent trials
T1 construct: made in house; host or cells: E. coli BL21(DE3) Codon Plus, pET11d

[1] = molecular target: fluorescein-labeled CaV1.2 IQ peptide Y1657D (rat); experiment: fluorescence polarisation; fluorescein-labeled peptide (100 nM) titrated with apoCaM in Ca2+-free buffer: 20 mM Tris, pH 7.4, 100 mM KCl, 1 mM MgCl2, 2.0 mM EGTA

binding to Ca2/CaM12’ compared to IQ^WT (Ca2/CaM12’) | n-value (stoichiometry) (Ca2/CaM12’) | ΔH (Ca2/CaM12’) [kcal/mol] | Molecule | Kd [1] [µM]
weaker binding | – | – | CC[C@H](C)[C@H](NC(=O)[C@H](CC(C)C)NC(=O)[C@H](Cc1ccccc1)NC(=O)[C@@H](NC(=O)[C@H](C)NC(=O)[C@H](Cc1ccc(O)cc1)NC(=O)[C@H](Cc1ccccc1)NC(=O)[C@H](CCCCN)NC(=O)CNC(=O)[C@@H](NC(=O)[C@@H](N)[C@@H](C)O)C(C)C)[C@@H](C)O)C(=O)N[C@@H](CCC(N)=O)C(=O)N[C@@H](CCC(=O)O)C(=O)N[C@@H](CC(=O)O)C(=O)N[C@@H](Cc1ccccc1)C(=O)N[C@@H](CCCNC(=N)N)C(=O)N[C@@H](CCCCN)C(=O)N[C@@H](Cc1ccccc1)C(=O)N[C@@H](CCCCN)C(=O)N[C@@H](CCCCN)C(=O)N[C@@H](CCCNC(=N)N)C(=O)O [IQ^Y1657D] | –
weaker binding | 0.8 ± 0.5 | -5.9 ± 0.7 | CC[C@H](C)[C@H](NC(=O)[C@H](CC(C)C)NC(=O)[C@H](Cc1ccccc1)NC(=O)[C@@H](NC(=O)[C@H](C)NC(=O)[C@H](Cc1ccc(O)cc1)NC(=O)[C@H](Cc1ccccc1)NC(=O)[C@H](CCCCN)NC(=O)CNC(=O)[C@@H](NC(=O)[C@@H](N)[C@@H](C)O)C(C)C)[C@@H](C)O)C(=O)N[C@@H](CCC(N)=O)C(=O)N[C@@H](CCC(=O)O)C(=O)N[C@@H](Cc1ccc(O)cc1)C(=O)N[C@@H](CC(=O)O)C(=O)N[C@@H](CCCNC(=N)N)C(=O)N[C@@H](CCCCN)C(=O)N[C@@H](Cc1ccccc1)C(=O)N[C@@H](CCCCN)C(=O)N[C@@H](CCCCN)C(=O)N[C@@H](CCCNC(=N)N)C(=O)O [IQ^F1658D] | –
– | – | – | apoCaM (Ca2+-free calmodulin) (from UniProt P0DP33 1-149) (natural protein) | 60
weaker binding | – | – | CC(C)C[C@H](NC(=O)[C@H](Cc1ccccc1)NC(=O)[C@@H](NC(=O)[C@H](C)NC(=O)[C@H](Cc1ccc(O)cc1)NC(=O)[C@H](Cc1ccccc1)NC(=O)[C@H](CCCCN)NC(=O)CNC(=O)[C@@H](NC(=O)[C@@H](N)[C@@H](C)O)C(C)C)[C@@H](C)O)C(=O)N[C@@H](C)C(=O)N[C@@H](CCC(N)=O)C(=O)N[C@@H](CCC(=O)O)C(=O)N[C@@H](Cc1ccc(O)cc1)C(=O)N[C@@H](Cc1ccccc1)C(=O)N[C@@H](CCCNC(=N)N)C(=O)N[C@@H](CCCCN)C(=O)N[C@@H](Cc1ccccc1)C(=O)N[C@@H](CCCCN)C(=O)N[C@@H](CCCCN)C(=O)N[C@@H](CCCNC(=N)N)C(=O)O [IQ^I1654A] | –
weaker binding | 0.88 ± 0.25 | -9.7 ± 0.2 | CC[C@H](C)[C@H](NC(=O)[C@H](CC(C)C)NC(=O)[C@H](Cc1ccccc1)NC(=O)[C@@H](NC(=O)[C@H](C)NC(=O)[C@H](C)NC(=O)[C@H](Cc1ccccc1)NC(=O)[C@H](CCCCN)NC(=O)CNC(=O)[C@@H](NC(=O)[C@@H](N)[C@@H](C)O)C(C)C)[C@@H](C)O)C(=O)N[C@@H](CCC(N)=O)C(=O)N[C@@H](CCC(=O)O)C(=O)N[C@@H](Cc1ccc(O)cc1)C(=O)N[C@@H](Cc1ccccc1)C(=O)N[C@@H](CCCNC(=N)N)C(=O)N[C@@H](CCCCN)C(=O)N[C@@H](Cc1ccccc1)C(=O)N[C@@H](CCCCN)C(=O)N[C@@H](CCCCN)C(=O)N[C@@H](CCCNC(=N)N)C(=O)O [IQ^Y1649A] | –
– | 1.0 ± 0.25 | -9.5 ± 0.2 | TVGKFYATFLIQEYARKFKKR [IQ^F1658A] | –

Source: article PMC9764201, “Half-calcified calmodulin promotes basal activity and inactivation of the L-type calcium channel CaV1.2” (The Journal of Biological Chemistry, 2022)
